The record followed here is patent publication EP4745151A1, “FIBROBLAST ACTIVATION PROTEIN LIGAND AND USE THEREOF” (Jiangsu Hengrui Pharmaceuticals Co., Ltd., priority 2023, dated 2025).

Where two headings read alike, the source gives them in different places. Numbered stars: 1 amine (or outer) side, 2 acyl side, 3 side chain; on linkers, the order of the positions; unused ones are H or OH. Bridge positions count the residues as written; N and C are the ends. Square brackets hold non-standard residues; d marks the D form. Peptide text beside a SMILES is read from it. * marks the point of attachment. TBMB(SCH2CH2NH-DOTA) = O=C(O)CN1CCN(CC(=O)O)CCN(CC(=O)NCCSCc2cc(C[*:1])cc(C[*:2])c2)CCN(CC(=O)O)CC1; Phe(2-CF3) = N[C@@H](Cc1ccccc1C(F)(F)F)C(=O)O; Hyp = O=C(O)[C@@H]1C[C@@H](O)CN1; Hexanoyl = CCCCCC(=O)*; Aib = CC(C)(N)C(=O)O

In data set [1] the test system is U-87 MG cells. Nature of the data set: In vivo efficacy experiment in U-87 MG model mice. Also noted: species or system B-NDG mice. How it is done:
A total of 90 mice were inoculated. When the tumour in the mice grew to about […], 40 mice with uniform tumour sizes were selected for study enrolment.
The administration regimen was as follows: • Route of administration: tail vein injection; • Administration volume: 0.03-0.07 mL/animal; • Administration frequency and dose: The control group was given PBS, the ^177Lu-FAP-2286 group was given a single dose of 0.8 mCi/animal, the ^177Lu-DOTA-09 0.4mCi group was given a single dose of 0.4 mCi/animal, the ^177Lu-DOTA-09 0.8 mCi group was given a single dose of 0.8 mCi/animal, the ^177Lu-DOTA-09 0.8mCi×2 group was given two doses of 0.8 mCi/animal, with an administration interval of 35 days. Each group included eight animals. The administration time and administration activity of each mouse were recorded in detail.
After tumour modelling, the tumour size was observed. On the day before administration or the day of administration, the tumour volume was measured using a digital calliper, and the animal body weight was recorded. The animals were evenly divided into five groups on the basis of tumour volume, as follows: control group, ^177Lu-FAP-2286 0.8 mCi group, ^177Lu-DOTA-09 0.4 mCi group, ^177Lu-DOTA-09 0.8 mCi group, and ^177Lu-DOTA-09 0.8 mCi*2 group, with eight animals in each group.
On the day of administration, the test sample was taken for preparation (the stock solution of the test sample was directly used), and the activity of the prepared solution was measured.
From the second day after administration, the stage of tumour and body weight measurement began. The tumour and body weight measurement was performed at least twice a week. During each measurement, the long and short diameters of the tumour were recorded. The measurements were kept at the same location as possible. The abnormalities and deaths of the animals were recorded in time. […] The tumour volume was calculated as follows: tumour volume (mm^3) = long diameter × short diameter × short diameter × 0.52.

The subject of data set [2] is U-87 MG cells. The following applies: mouse, in vivo.
Protocol: (§1) Experimental animals: Germline: B-NDG (Biocytogen Jiangsu Co., Ltd.); Age: 5-8 weeks old; Body weight: 20-24 g.
(§2) A sufficient quantity of U-87 MG cells was prepared and inoculated into the posterior position of the right forelimb of B-NDG mice in an inoculation volume of 100 µl, containing 50% Matrigel and 5 × 10^6 cells. After inoculation, the tumour volume and animal body weight were monitored twice a week. Model mice with a tumour volume between 200 and 500 m^3 were selected for enrolment in this experiment and randomly grouped on the basis of tumour volume.
For data set [3] the following is noted: rat, in vivo.
Protocol: (§3) Experimental animals: Germline: SD rat (Beijing Vital River Laboratory Animal Technology Co., Ltd.); Age: 5-6 weeks old; Body weight: 100-150 g.
(§4) • 1) Empty tubes for γ-counting were weighed and labelled in advance. • 2) After the test sample was injected into the tail vein of rats, animal blood samples were collected from the orbit at 2 min, 5 min, 15 min, 30 min, 1 h, 2 h, 4 h, 6 h, 24 h, 48 h and 72 h. The sample tubes containing blood were weighed. • 3) The net weight of the blood was calculated, and the radioactive count of the collected blood was determined using a γ-counter. • 4) The distribution of the labelled compound in the blood of rats at different time points was determined. The test sample was accurately diluted 100-fold, and 0.5 ml of the dilution was added to a counting tube to serve as a 1% ID standard (i.e., one percent of the injected dose). The radioactive counts of both the 1% ID standard and the biological samples were simultaneously determined using the γ-counter. • 5) The pharmacokinetic parameters were calculated using DAS software.
(§5) Data obtained from rat blood was expressed as the percentage of radioactive count per gram of blood relative to the total dose (radioactive count) (%ID/g). Specific calculation formula: [formula]
(§6) At the same time, the drug concentration in the blood was calculated on the basis of the radioactive count in the blood. Specific calculation formula: Plasma concentration (μCi/mL) = ((CPMBlood/CPMTotal administered dose) × D (μCi)Administered dose)/(w (g) Blood/i (g/mL)Blood density) [formula]
Data set [4] is described as follows: PET/SPECT imaging test of labelled compounds in U-87 MG tumour-bearing mice. The following applies: B-NDG, mouse, tumour and kidney, iv, total radioactivity.
Protocol: as §1, §2
Data set [5] concerns U-87 MG cells. The description is as above. The following applies: for Tumour uptake: 177Lu-labelled.
Protocol: as §1, §2
Data set [6] is described as follows: Plasma concentration (pharmacokinetic) experiment of 177Lu-labelled compounds. The following applies: for tissue uptake: SD, rat, whole blood, iv, total radioactivity.
Protocol: as §3, §4, §5, §6

As to `CCCCCC(=O)N[C@H]1CSCc2cc(CSCCNC(=O)CN3CCN(CC(=O)O)CCN(CC(=O)O)CCN(CC(=O)O)CC3)cc(c2)CSC[C@@H](C(=O)O)NC(=O)[C@H](Cc2ccccc2C(F)(F)F)NC(=O)[C@H](CCC(N)=O)NC(=O)[C@H]([C@@H](C)O)NC(=O)[C@@H]2C[C@@H](O)CN2C(=O)[C@@H]2CCCN2C(=O)C(C)(C)NC1=O` [^177Lu-DOTA-09, metal not drawn] (Hexanoyl-C[Aib]P[Hyp]TQ[Phe(2-CF3)]C-OH; linker 1-8 via TBMB(SCH2CH2NH-DOTA)), the “body weight changes of mice” value in data set [1] (during administration, all dose groups) is “No significant body weight changes”. Moreover, the “course of tumour uptake / intratumoral retention” value in data set [2] is reported as “decreased slowly”. Also, the “half-life (t1/2) compared with control” value in data set [3] is “significantly longer”. The same molecule showed a t1/2 in data set [3] of 9.12 ± 4.69 h. Besides, in data set [4], the tissue to tissue ratio at 0.5 h was 6.08 ± 1.62. For the same molecule, the tissue to tissue ratio at 1.5 h in data set [4] amounted to 8.66 ± 0.73. Besides, in data set [4], the tissue to tissue ratio at 4 h stood at 11.8 ± 2.62. For the same molecule, the tissue to tissue ratio at 24 h in data set [4] was 19.4 ± 5.84. The Tumour uptake in data set [5] (Table 5, 0.5 h) is on record as 29.52±2.98; in data set [5] (Table 5, 1.5 h), 30.88±3.14; in data set [5] (Table 5, 4.0 h) it was 31.09±3.88; in data set [5] (Table 5, 24h) it was 30.46±1.99; in data set [5] (Table 5, 48h), 24.10±2.21; in data set [5] (Table 5, 72h) it was 20.59±1.91. In data set [5] (Table 5, 168h), the Tumour uptake stood at 12.81±0.90. For the same molecule, the “tumour/kidney ratio compared with control” value in data set [5] (versus 177Lu-FAP-2286, in words) is “higher”. In addition, the Cl_obs in data set [6] (SD rat, tail vein, blood) was 0.10±0.02 µCi/h*%ID/g. For the same molecule, the Cmax in data set [6] (SD rat, tail vein, blood) was determined as 0.89±0.21 %ID/g. The molecule further yielded an MRTlast in data set [6] (SD rat, tail vein, blood) of 15.49 ± 0.36 h. Besides, the Vz_obs in data set [6] (SD rat, tail vein, blood) is given as 2.21±0.38 µCi/%ID/g. Besides, the tissue uptake in data set [6] (AUCINF_obs, SD rat, tail vein, blood) turned out to be 5.28 ± 1.07; in data set [6] (AUClast, SD rat, tail vein, blood), 5.04 ± 0.94. Also, the “mean residence time (MRTlast) compared with control” value in data set [6] (rats, versus 177Lu-FAP-2286, in words) is “significantly longer”.

In the case of `CCCCCC(=O)N[C@H]1CSCc2cc(CSCCNC(=O)CN3CCN(CC(=O)O)CCN(CC(=O)O)CCN(CC(=O)O)CC3)cc(c2)CSC[C@@H](C(=O)O)NC(=O)[C@H](Cc2ccccc2)NC(=O)[C@H](CCC(N)=O)NC(=O)[C@H]([C@@H](C)O)NC(=O)[C@@H]2CCCN2C(=O)[C@@H]2CCCN2C1=O` [^177Lu-FAP-2286, metal not drawn], the tumour inhibition rate in data set [1] (day 20 after administration, single dose of 0.8 mCi/animal) was found to be 40.02%. For the same molecule, the tumour size in data set [1] (day 20 after administration, single dose of 0.8 mCi/animal, tail vein) worked out at 1833.89 ± 338.00 mm^3. The median survival time in data set [1] (single dose of 0.8 mCi/animal) came to 39 days. Also, the “course of tumour uptake / intratumoral retention” value in data set [2] is recorded as “rapid decrease in intratumoral retention after 4 hours”. In data set [3], this molecule registered a Cl_obs of 0.53±0.08 µCi/h*%ID/g, a Cmax of 0.73±0.27 %ID/g, an MRTlast of 2.52 ± 0.34 h and a Vz_obs of 1.50±0.97 µCi/%ID/g. In data set [3], this molecule had a t1/2 of 1.29 ± 0.43 h. In addition, in data set [4], the tissue to tissue ratio at 0.5 h was 3.29 ± 0.78, the tissue to tissue ratio at 1.5 h worked out at 6.53 ± 1.12, the tissue to tissue ratio at 4 h was determined as 9.82 ± 4.79 and the tissue to tissue ratio at 24 h worked out at 2.75 ± 0.9.
